From PubChem BioAssay (NCI)
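Tested at 5 concentrations; 48 h exposure; 96-well plates; endpoints linearly interpolated, else capped at highest concentration. At the GI50, growth is halved. The concentration for full growth arrest is given as TGI.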 Where a SMILES comes first, the peptide text is derived from it. [ ]: non-standard residue; d: D form. pGlu = O=C1CC[CH](C(=O)O)N1

Tested on: MDA-MB-468 breast
Assay: NCI-60 cell line screen, 48 h

Point of comparison: `CCOC(=O)c1c(C)nc2c(c1N)CC(=O)N2Cc1ccc(OC)cc1`, GI50 27.3 µM. Against it:
- COc1ccc2sc(NC(=O)CCCCCCNC(=O)C(O)(O)C(F)(F)F)nc2c1 — 41-fold lower, 0.665 µM
- COc1cccc(N2CCN(CC(=O)N3CCN(c4nnc(-c5ccc(Cl)cc5)c(-c5ccc(Cl)cc5)n4)CC3)CC2)c1 — within 1.5-fold, 22.5 µM
- CCN(Cc1ccc(Cl)cc1)c1ccc(CO)c(Cl)c1 — 1400-fold lower, 0.02 µM
- O=C(Oc1cccc(F)c1OC(=O)c1cccc(O)c1)c1cccc(O)c1 — 1.5-fold lower, 18.2 µM
- COc1cc(/C=C\c2cc(OC)c(OC)c(OC)c2)cc(NC(=O)/C=C/c2cc(OC)c(OC)c(OC)c2)c1OC — 14-fold lower, 1.99 µM
- Cc1cccc(/C=C/c2c(C(=O)/C=C/c3ccccc3)c(C)nc3ccccc23)c1 — 14-fold lower, 1.9 µM
- O=C(CCCCCCNC(=O)c1cnc(N(c2ccccc2)c2ccccc2)nc1)NO — 22-fold lower, 1.22 µM
- COc1ccc(C(=S)N2CCN(c3cccc(C)c3)CC2)cc1OC — 10-fold lower, 2.65 µM
- O=C(Nc1cccc(-c2nc(-c3ccc(NC(=O)c4cccnc4)cc3Cl)no2)c1)Nc1ccc(NC(=O)C2CC2)c(C(F)(F)F)c1 — 140-fold lower, 0.193 µM
- O=c1[nH]nnc2c1ncn2C1OC(CO)C(O)C1O (stereo not drawn) — 8.1-fold lower, 3.36 µM
- COc1ccc(-c2nn(-c3cccc(Cl)c3)cc2-c2cc(-c3cccs3)[nH]c(=S)n2)cc1 — 11-fold lower, 2.57 µM
- O=C(Nc1cc(Cl)cc(Cl)c1)Nc1nc2ccc([N+](=O)[O-])cc2s1 — 27-fold lower, 1 µM
- C[C@H](NC(=O)[C@@H](C)N)[C@H](Oc1ccc2c(cnn2-c2ccc(F)cc2)c1)c1ccc2c(c1)OCCO2 — 13-fold lower, 2.12 µM
- CCNC(=O)C1CCCN1C(=O)C(CCCN=C(N)N)NC(=O)C(CC(C)C)NC(=O)C(CC(C)C)NC(=O)C(Cc1ccc(O)cc1)NC(=O)C(CO)NC(=O)C(Cc1c[nH]c2ccccc12)NC(=O)C(Cc1cnc[nH]1)NC(=O)C1CCC(=O)N1 (stereo not drawn) ([pGlu]HWSYLLRP-NHEt; configuration not given here) — higher, > 100 µM
- CCN(Cc1cc(Nc2nc(C)cn3c(-c4cn[nH]c4)cnc23)sn1)C(C)(C)CO — lower, < 0.0123 µM
- CN(CCO)CC[C@H](CSc1ccccc1)Nc1ccc(S(=O)(=O)NC(=O)c2ccc(N3CCC([C@@H](O)c4ccccc4-c4ccc(Cl)cc4)CC3)cc2)cc1S(=O)(=O)C(F)(F)F — 15-fold lower, 1.87 µM
- O=c1[nH]c(=O)c2cn[nH]c2[nH]1 — higher, > 100 µM
- Clc1nc(Cl)c2ncn(CC3(Cn4cnc5c(Cl)nc(Cl)nc54)COC3)c2n1 — 140-fold lower, 0.192 µM
- CCOC(=O)Nc1ccc2c(c1)/C(=N\NC(N)=S)c1ccccc1-2 — 7.9-fold lower, 3.46 µM
- O=C(c1ccccc1)c1ccccc1-c1ccccc1 — 36-fold lower, 0.768 µM
- C=C1C(=O)O[C@H]2[C@H]1CC/C(CNC(=O)/C=C/c1cc(OC)c(OC)c(OC)c1)=C\CC[C@@]1(C)O[C@@H]21 — 120-fold lower, 0.22 µM
- Fc1ccc(C2CC(c3cccc(Nc4ccncc4)c3)=NN2c2ccc(Cl)cc2)cc1 (stereo not drawn) — 19-fold lower, 1.42 µM
- C=CCN=c1sc2c(n1NC(=O)c1cc3ccc1CCc1ccc(cc1)CC3)C(=O)c1ccccc1C2=O — 12-fold lower, 2.28 µM
- C[C@]12CC[C@@H]3c4ccc(OC(=O)N(CCCl)CCCl)cc4CC[C@H]3[C@@H]1CC[C@@H]2O — 16-fold lower, 1.69 µM
- Oc1c(-c2nnc(-c3ccccc3Cl)o2)sc2nnc(-c3ccccc3)c(-c3ccccc3)c12 — 5.3-fold lower, 5.11 µM
- COc1ncnc2c(-c3ccccc3)cn(COCc3ccccc3)c12 — 16-fold lower, 1.74 µM
- IP(CCCSc1n(Cc2ccc3ccccc3c2)c(-c2ccccc2)c(-c2ccccc2)[n+]1Cc1ccc2ccccc2c1)(c1ccccc1)(c1ccccc1)c1ccccc1 — 12-fold lower, 2.25 µM
- C/C=C(\C)C(=O)NC1=CC[C@@]2(C)C(=CCC3C2CC[C@@]2(C)C3CC[C@@H]2C(C)N(C)C)C1=O (stereo partly drawn) — 14-fold lower, 2 µM
- ClCc1cccc2c(CCl)cccc12 — 24-fold lower, 1.12 µM
- N#Cc1ccc(OCc2nc(N)nc(N)c2-c2ccc(Cl)c(Cl)c2)cc1 — 18-fold lower, 1.53 µM
- C=C1C(=O)O[C@H]2[C@H]1CC/C(COC(=O)CSCSCC(=O)OC/C1=C/CC[C@@]3(C)O[C@H]3[C@H]3OC(=O)C(=C)[C@@H]3CC1)=C\CC[C@@]1(C)O[C@@H]21 — 26-fold lower, 1.07 µM
- CCCCCCCCNc1cc2c3c(c1)CCCN3CCC2 — 18-fold lower, 1.54 µM
- CCN1C(=O)N(CC)C2C1NN=c1s/c(=C\c3cccc(F)c3)c(=O)n12 (stereo not drawn) — 150-fold lower, 0.183 µM

Point of comparison: `Clc1nc(Cl)c2ncn(CC3(Cn4cnc5c(Cl)nc(Cl)nc54)COC3)c2n1`, TGI 0.408 µM. Against it:
- COc1ccc2sc(NC(=O)CCCCCCNC(=O)C(O)(O)C(F)(F)F)nc2c1 — 4.4-fold higher, 1.81 µM
- COc1cccc(N2CCN(CC(=O)N3CCN(c4nnc(-c5ccc(Cl)cc5)c(-c5ccc(Cl)cc5)n4)CC3)CC2)c1 — higher, > 100 µM
- CCN(Cc1ccc(Cl)cc1)c1ccc(CO)c(Cl)c1 — 6.5-fold lower, 0.0626 µM
- O=C(Oc1cccc(F)c1OC(=O)c1cccc(O)c1)c1cccc(O)c1 — 140-fold higher, 55.2 µM
- COc1cc(/C=C\c2cc(OC)c(OC)c(OC)c2)cc(NC(=O)/C=C/c2cc(OC)c(OC)c(OC)c2)c1OC — higher, > 100 µM
- Cc1cccc(/C=C/c2c(C(=O)/C=C/c3ccccc3)c(C)nc3ccccc23)c1 — 9.3-fold higher, 3.79 µM
- O=C(CCCCCCNC(=O)c1cnc(N(c2ccccc2)c2ccccc2)nc1)NO — 25-fold higher, 10.2 µM
- COc1ccc(C(=S)N2CCN(c3cccc(C)c3)CC2)cc1OC — higher, > 100 µM
- O=C(Nc1cccc(-c2nc(-c3ccc(NC(=O)c4cccnc4)cc3Cl)no2)c1)Nc1ccc(NC(=O)C2CC2)c(C(F)(F)F)c1 — 1.7-fold higher, 0.691 µM
- O=c1[nH]nnc2c1ncn2C1OC(CO)C(O)C1O (stereo not drawn) — higher, > 100 µM
- COc1ccc(-c2nn(-c3cccc(Cl)c3)cc2-c2cc(-c3cccs3)[nH]c(=S)n2)cc1 — 24-fold higher, 9.91 µM
- O=C(Nc1cc(Cl)cc(Cl)c1)Nc1nc2ccc([N+](=O)[O-])cc2s1 — 10-fold higher, 4.22 µM
- C[C@H](NC(=O)[C@@H](C)N)[C@H](Oc1ccc2c(cnn2-c2ccc(F)cc2)c1)c1ccc2c(c1)OCCO2 — 9.9-fold higher, 4.05 µM
- CCNC(=O)C1CCCN1C(=O)C(CCCN=C(N)N)NC(=O)C(CC(C)C)NC(=O)C(CC(C)C)NC(=O)C(Cc1ccc(O)cc1)NC(=O)C(CO)NC(=O)C(Cc1c[nH]c2ccccc12)NC(=O)C(Cc1cnc[nH]1)NC(=O)C1CCC(=O)N1 (stereo not drawn) ([pGlu]HWSYLLRP-NHEt; configuration not given here) — higher, > 100 µM
- CCN(Cc1cc(Nc2nc(C)cn3c(-c4cn[nH]c4)cnc23)sn1)C(C)(C)CO — 1.8-fold lower, 0.233 µM
- CN(CCO)CC[C@H](CSc1ccccc1)Nc1ccc(S(=O)(=O)NC(=O)c2ccc(N3CCC([C@@H](O)c4ccccc4-c4ccc(Cl)cc4)CC3)cc2)cc1S(=O)(=O)C(F)(F)F — 13-fold higher, 5.19 µM
- O=c1[nH]c(=O)c2cn[nH]c2[nH]1 — higher, > 100 µM
- CCOC(=O)Nc1ccc2c(c1)/C(=N\NC(N)=S)c1ccccc1-2 — 61-fold higher, 25 µM
- O=C(c1ccccc1)c1ccccc1-c1ccccc1 — 9.1-fold higher, 3.7 µM
- C=C1C(=O)O[C@H]2[C@H]1CC/C(CNC(=O)/C=C/c1cc(OC)c(OC)c(OC)c1)=C\CC[C@@]1(C)O[C@@H]21 — 2.6-fold higher, 1.06 µM
- Fc1ccc(C2CC(c3cccc(Nc4ccncc4)c3)=NN2c2ccc(Cl)cc2)cc1 (stereo not drawn) — 7.2-fold higher, 2.93 µM
- C=CCN=c1sc2c(n1NC(=O)c1cc3ccc1CCc1ccc(cc1)CC3)C(=O)c1ccccc1C2=O — 14-fold higher, 5.72 µM
- CCOC(=O)c1c(C)nc2c(c1N)CC(=O)N2Cc1ccc(OC)cc1 — higher, > 100 µM
- C[C@]12CC[C@@H]3c4ccc(OC(=O)N(CCCl)CCCl)cc4CC[C@H]3[C@@H]1CC[C@@H]2O — 10-fold higher, 4.21 µM
- Oc1c(-c2nnc(-c3ccccc3Cl)o2)sc2nnc(-c3ccccc3)c(-c3ccccc3)c12 — 68-fold higher, 27.8 µM
- COc1ncnc2c(-c3ccccc3)cn(COCc3ccccc3)c12 — 17-fold higher, 6.82 µM
- IP(CCCSc1n(Cc2ccc3ccccc3c2)c(-c2ccccc2)c(-c2ccccc2)[n+]1Cc1ccc2ccccc2c1)(c1ccccc1)(c1ccccc1)c1ccccc1 — 15-fold higher, 5.97 µM
- C/C=C(\C)C(=O)NC1=CC[C@@]2(C)C(=CCC3C2CC[C@@]2(C)C3CC[C@@H]2C(C)N(C)C)C1=O (stereo partly drawn) — 23-fold higher, 9.56 µM
- ClCc1cccc2c(CCl)cccc12 — 7.5-fold higher, 3.05 µM
- N#Cc1ccc(OCc2nc(N)nc(N)c2-c2ccc(Cl)c(Cl)c2)cc1 — 130-fold higher, 53.9 µM
- C=C1C(=O)O[C@H]2[C@H]1CC/C(COC(=O)CSCSCC(=O)OC/C1=C/CC[C@@]3(C)O[C@H]3[C@H]3OC(=O)C(=C)[C@@H]3CC1)=C\CC[C@@]1(C)O[C@@H]21 — 6.6-fold higher, 2.7 µM
- CCCCCCCCNc1cc2c3c(c1)CCCN3CCC2 — 13-fold higher, 5.31 µM
- CCN1C(=O)N(CC)C2C1NN=c1s/c(=C\c3cccc(F)c3)c(=O)n12 (stereo not drawn) — higher, > 100 µM
